Where a SMILES comes first, the peptide text is derived from it. The star is where a group is joined. Cbz = O=C(OCc1ccccc1)*; CH2F = FC*
Key:
m-calpain = molecular target: T1, m-calpain (Homo sapiens, UniProt P17655); conditions: on-target; cited from earlier work
T1 sequence (P17655 1-700): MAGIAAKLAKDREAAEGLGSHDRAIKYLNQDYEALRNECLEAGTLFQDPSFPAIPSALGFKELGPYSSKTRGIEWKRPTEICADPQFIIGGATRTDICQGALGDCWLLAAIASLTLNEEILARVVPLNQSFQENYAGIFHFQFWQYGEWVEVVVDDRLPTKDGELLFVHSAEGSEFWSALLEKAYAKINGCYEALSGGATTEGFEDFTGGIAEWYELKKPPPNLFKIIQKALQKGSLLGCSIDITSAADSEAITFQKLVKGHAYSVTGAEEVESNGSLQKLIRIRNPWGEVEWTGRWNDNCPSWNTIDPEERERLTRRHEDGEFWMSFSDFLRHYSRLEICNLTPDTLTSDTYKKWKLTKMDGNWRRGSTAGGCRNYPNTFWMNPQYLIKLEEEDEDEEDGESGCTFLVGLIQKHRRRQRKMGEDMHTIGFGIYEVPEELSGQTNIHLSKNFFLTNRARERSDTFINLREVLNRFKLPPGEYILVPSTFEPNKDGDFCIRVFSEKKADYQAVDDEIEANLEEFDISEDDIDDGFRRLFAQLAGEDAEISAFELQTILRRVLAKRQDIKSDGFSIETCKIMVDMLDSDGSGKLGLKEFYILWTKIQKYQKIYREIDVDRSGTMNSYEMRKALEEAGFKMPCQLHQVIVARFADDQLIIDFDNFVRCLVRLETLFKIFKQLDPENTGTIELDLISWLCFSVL
T1 sequence (P04632 1-268 partner): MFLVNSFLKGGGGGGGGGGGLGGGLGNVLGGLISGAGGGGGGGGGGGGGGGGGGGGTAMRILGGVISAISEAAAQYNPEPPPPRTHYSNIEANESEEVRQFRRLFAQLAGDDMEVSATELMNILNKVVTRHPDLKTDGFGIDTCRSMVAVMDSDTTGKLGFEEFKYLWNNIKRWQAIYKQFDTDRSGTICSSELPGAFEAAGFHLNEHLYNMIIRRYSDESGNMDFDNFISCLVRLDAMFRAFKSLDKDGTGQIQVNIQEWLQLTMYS

[1] = tested on: AOM/DSS induced colitis/CAC; experiment: AOM/DSS induced colitis/CAC model; format: in vivo, C57BL/6J mice; conditions: for CAC pathology (blinded 4-point histological score) / total tumor volume (in words): day 63, vs vehicle control
Description: A mice colony generated from C57BL/6J mice (Jackson Laboratories) was maintained in the University of Hawaii vivarium. The mouse AOM/DSS induced colitis/CAC model was adapted from a previously described protocol (Fenouille, N. et al. J. Pathol. 227, 118-129, 2012). In brief, 8-10 wk old male mice were injected with AOM (A5486, Sigma) (12 mg/kg) on day 0 and were then treated with three 5 day cycles of 2% DSS (CAS#9011-18-1; MP Biomedicals, Santa Ana, Calif.) in drinking water alternated with regular water over 63 days. Mice in the intervention group were interperitonal injected 5 days per week with 0.75 mg/kg calpain-2 inhibitor (Calpain Inhibitor IV, zLLY-CH2F; Millipore EMD part number 208724) beginning on day 8 and then throughout the entire protocol. Control mice were injected with AOM on day 0 and received regular drinking water throughout the protocol. All animal protocols were approved by the University of Hawaii Institutional Animal Care and Use Committee.
Bone marrow derived macrophages (BMDM) were prepared as previously described by methods known to those skilled in the art. On day 5 of culture, 2×10^6 BMDM were seeded in 6-well plates and the following day were primed for 18 h with TNFα (20 ng/mL), followed by 1 h stimulation with E. faecalis (1 μg/mL; ATCC). Stimulation with E. faecalis was conducted in the presence of the zLLY-CH2F calpain-2 inhibitor (20 μg/mL) or DMSO as a control. Media was removed from treated BMDM, centrifuged at 300×g for 5 min and supernatent analyzed using the Cytometric Bead Array Mouse Inflammation Kit (BD Biosciences, San Jose, Calif.). Cytokine data were analyzed using Flowjo software (Ashland, Oreg.) and GraphPad Prism version 4.0 (GraphPad, La Jolla, Calif.). Cell pellets were lysed and analyzed for IκB and NFκB by Western blot as previously described (Miyazaki, T. et al. Journal of Atherosclerosis and Thrombosis 20, 228-237, 2013). In other experiments, mouse CT-26.WT and human HT-29 colon cancer cells were plated in 96-well plates at 10^3 cells/well with 20 μg/mL inhibitor or DMSO, followed by analyses for IκB and NFκB by Western blot as described above for BMDM. For proliferation assays, fresh media with 20 μg/mL inhibitor or DMSO were added every 2 d. Each day 4 wells were quantified using Celltiter MTS reagent (Promega) and the resulting signal was used to generate a proliferation curve. Calpain activity was measured using a Calpain activity assay kit (BioVision, Inc., Milpitas, Calif.) as previously described. Colons were harvested on day 4 and calpain activity measured. Enzyme-linked immunosorbant assay (ELISA) analyses of cecum hemoglobin has been previously described (Miyazaki, T. et al. Journal of Atherosclerosis and Thrombosis 20, 228-237, 2013).
On day 63, colons were dissected, cut longitudinally, and then were spread out on clear plastic. The colons were washed with PBS using transfer pipettes and images captured using an Infinity 2 microscope mounted camera (Lumenara, Madrid, Spain) in line with a Stemi 2000-C dissecting scope (Zeiss, Jena, Germany). Separate images were assembled into continuous colon images using Photoshop software (Adobe Systems Inc.). For histology, colon tissues were washed with PBS and fixed in 10% buffered formalin. Standard H&E staining of paraffin-embedded tissue samples was conducted as previously described (Leloup, L. & Wells, A., Expert Opinion on Therapeutic Targets 15, 309-323, 2011). Five H&E stained sections from each mouse were blindly scored for colitis pathology as previously described (Liu, T., Mendes, D. E. & Berkman, C. E. Int. J. Oncol. 44, 467-472, 2014). […]

cathespin L = cathespin L (Homo sapiens, UniProt P07711); conditions: off-target protein; Li et al., Biochemistry 2006; cited from earlier work
cathespin L, sequence (P07711 114-333): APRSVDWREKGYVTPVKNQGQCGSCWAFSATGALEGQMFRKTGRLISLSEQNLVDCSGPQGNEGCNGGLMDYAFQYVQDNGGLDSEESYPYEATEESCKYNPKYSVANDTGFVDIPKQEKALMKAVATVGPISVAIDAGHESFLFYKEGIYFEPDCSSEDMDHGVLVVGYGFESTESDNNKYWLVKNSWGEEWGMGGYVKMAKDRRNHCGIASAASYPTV

SMILES: CC(C)C[C@H](NC(=O)OCc1ccccc1)C(=O)N[C@@H](CC(C)C)C(=O)N[C@@H](Cc1ccc(O)cc1)C(=O)CF [zLLY-CH2F, Z-LLY-CH2F] (Cbz-Leu-Leu-Tyr-CH2F)
- k2 rate constant, irreversible inhibition of m-calpain (m-calpain): about 28,900 M-1 s-1
- weight recovery after each administration of DSS ([1]; 0.75 mg/kg i.p. from day 8, vs vehicle control): significant increase
- average number of tumors/mouse ([1]; day 63): 2 tumors/mouse
- hemoglobin in cecums by ELISA (bloody diarrhea) ([1]; day 63, 0.75 mg/kg i.p., vs vehicle control): significantly lower
- total tumor volume reduced by ([1]; day 63, i.p. 5 days on/2 days off from day 8, vs vehicle control): 70%
- CAC pathology (blinded 4-point histological score) [1]: significantly lower
- total tumor volume (in words) [1]: significantly lower
- CAC pathology (blinded 4-point histological score) ([1]; listed as calpain-2 inhibitor): significantly alleviated
- total tumor volume (in words) ([1]; listed as calpain-2 inhibitor): significant reduction
- total tumor volume (in words) ([1]; listed as m-calpain inhibitor): very significant tumor reduction
- colitis pathology and inflammatory infiltration (histology) ([1]; day 63 colon, vs vehicle control): significant decrease
- rate constant k2, inhibition of cathespin L (cathespin L): 680,000 M^−1s^−1
